Earlier results in US20090093547A1, “Compositions and Methods for Treating Premature Ejaculation” (Sciele Pharma, Inc., priority 2007, published 2009).
Where a name gives a salt, the structure may show the parent alone.

Conditions: hydrochloride salt crystallized from ethanol and isopropyl ether

For `CCCNC(C)C(=O)Nc1ccccc1C` (stereo not shown) [Prilocalne hydrochloride salt, Prilocalne], the solubility in water is listed as “readily soluble”.
